US20090123389A1, “Methods for modulating Th17 cell development in the treatment and prevention of cellulite” (priority 2007, published 2009)
Values joined by “and” are separate entries in the source; they are usually repeats but may differ in a detail not shown here. Equal entries are not always repeated.

Experiments:
Jurkat T cells = experiment: Apoptosis of Jurkat T cells (Annexin V / PI, flow cytometry); type: cell-based; conditions: 100 nM HF, cultured for 30 hours
Procedure: The non-specific cytoxicity of HF in both normal and transformed T-cells at high doses was evaluated. Anti-CD3/anti-CD28 activated primary T cells were harvested 6 days after activation and cultured in the presence of IL-2 with or without HF (100 nM). As a positive control, some T cells were cultured without IL-2 to induce apoptosis (FIG. 3A). Jurkat T cells, a transformed T cell leukemia line, were cultured in complete medium with or without HF (100 nM) as indicated (FIG. 3B). Both primary and Jurkat T cells were cultured for 30 hours and programmed cell death, i.e. apoptosis, was determined by Annexin V staining and propidium iodide (PI) uptake and cells were analyzed by flow cytometry. The percent of apoptotic T cells at each time point was plotted and was defined as Annexin V^+ PI^−. […] In further experiments, titrating amounts of HF were added to primary T cells and apoptosis was determine as above at the indicated time points. At 100 nM HF, but not 30 nM or lower, generalized T-cell apoptosis was observed (FIG. 3C).

[1] = tested on: human peripheral blood T cells; conditions: cited from earlier work
RORγt = RORγt expression (real-time PCR) and RORγt retroviral transduction; type: cell-based, mouse; conditions: 10 nM HF
Procedure: T cells were harvested at the indicated times following activation, RNA was isolated and quantitative real-time PCR was performed using RORγt-specific primers and taqman probe. RORγt expression was normalized to Gapdh levels, and the data are presented as fold changes relative to naïve T cells.
Infected T cells were expanded and restimulated on day 4 for intracellular staining. MIG- and MIG.RORγt-transduced cells were gated based on GFP fluorescence.
FIG. 16C is a graph depicting the percent of Th17 cells (IL-17^+ IFNγ^−) in cultures of MIG-transduced (black bars) or MIG.RORγt-transduced (white bars) T cells as determined by intracellular cytokine staining were normalized to DMSO-treated cultures. The data are presented as mean values±SD on duplicate samples. […]
Quantitative real-time PCR: T cells were activated as described above, collected at the indicated times and pellets were flash-frozen in liquid nitrogen. […] RORγt expression was determined after reverse transcription using the message sensor kit (Ambion, Austin, Tex.) per manufacturers instructions and taqman primers and probe as described elsewhere (I. Ivanov, et al., Cell 126, 1121, 2006). Sybrgreen quantitative real-time PCR was performed on T cell RNA samples following reverse transcription via SuperScript II first-strand cDNA synthesis kit (Invitrogen, Carlsbad, Calif.). […]

CD4+ CD25− T cells = experiment: Foxp3 (Treg marker) expression in TGFβ/IL-6 treated T cells; type: cell-based, mouse
Procedure: Low doses of halofuginone (HF) were tested to determine the ability of HF to enhance Treg differentiation, while suppressing Th17 differentiation. Naïve CD4+ T cells (CD4+ CD25−) were isolated from the spleen and peripheral lymph nodes of C57B/6 mice. T cells were then activated using anti-CD3 (0.3 μg/ml) and anti-CD28 (0.5 μg/ml) antibodies either in media alone (row 1, 4), TGFβ alone (3 ng/ml—row 2, 5) or TGFβ (3 ng/ml) plus IL-6 (30 ng/ml) (row 3, 6). […] T cells were cultured for 3 days and CD25 and Foxp3 expression (Treg marker genes) was determine by FACS staining and flow cytometric analyses. Simultaneously, T cells were harvested and re-stimulated for 4 hours using phorbol myristic acetate (PMA; 10 nM), Ionomycin (1 μM) and cytokine secretion was prevented using brefeldin A (20 μg/ml). Following stimulation, the production of IL-17 and IFNγ were determined by intracellular staining and analyzed via flow cytometry. […]
FACS analyses and sorting: All cell surface staining was performed in FACS buffer (PBS/2% FCS/0.1% NaN3) and antibodies were incubated with cells on ice for 20-30 minutes. […] All FACS data was acquired on a FACSCalibur flow cytometer (BD Pharmingen) and analyzed using FlowJo software (Treestar, Inc., Ashland, Oreg.). […]

mTOR = experiment: Signaling downstream of mTOR in fibroblasts; type: cell-based

O=C(CC1NCCCC1O)Cn1cnc2cc(Br)c(Cl)cc2c1=O (racemic) [HF, 7-bromo-6-chloro-3-[3-(3-hydroxy-2-piperidinyl)-2-oxopropyl]-4(3H)-quinazolinone]
apoptosis of Jurkat T cells (Jurkat T cells): significant apoptosis | NFkB activation and T-cell secretion of cytokines ([1]; 80 nM HF, crude preparation of primary T-cells): broadly suppress | IC50 ([1]; Lieba studies, read-out: 50% inhibition of cytokine secretion, NF-kB activation, p38 phosphorylation): 20 to 40 nM | levels of cytokine secretion, NF-kB activation and p38 phosphorylation ([1]; anti-CD3 activated T cells): generally reduced levels | upregulation of RORγt or RORγ during Th17 differentiation (RORγt): did not interfere | Foxp3 expression of T cells differentiated in the presence of HF (CD4+ CD25− T cells; 10 nM HF, TGFβ plus IL-6, day 3): enhanced Foxp3 expression | HF concentration that increased expression of the Treg marker FoxP3 (CD4+ CD25− T cells; TGFβ/IL-6 treated T-cells, 3 days): 2.5 to 10 nM and 2.2 to 10 nM | signaling downstream of mTOR in fibroblasts (mTOR): did not inhibit
